Drawing on patent US20230416256A1, “SMALL MOLECULE INHIBITORS OF NF-kB INDUCING KINASE” (Janssen Pharmaceutica NV, priority 2020, published 2023), this text covers IC50 for 26 compounds.

Assay [1] addresses recombinant human NF-kappaB-inducing kinase (NIK/MAP3K14) (Homo sapiens, UniProt Q99558). The assay can be described thus: Inhibition of auto-phosphorylation of recombinant human NIK/MAP3K14 activity (AlphaScreen). The assay is classed as biochemical. The following applies: GST-tagged NIK/MAP3K14 1 nM, 5 μM ATP, 2 h at 25° C.; average of values obtained. The method in brief:
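GST-tagged NIK (1 nM) auto-phosphorylated for 2 h at 25 °C with 5 μM ATP in 50 mM Tris pH 7.5, 5 mM MgCl2, 0.7% DMSO. Phospho-Ser176/180 was detected by AlphaScreen using an anti-phospho-IKK antibody. IC50 came from sigmoidal fits of % inhibition versus high (full activity) and low (no ATP) controls.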
Background: In Alpha technology, singlet oxygen from a donor bead excites a nearby acceptor bead.

For assay [2], the system named is p-IKKα levels in L363 (NIK translocated multiple myeloma) cells. The assay can be described thus: Effect of compounds on p-IKKα levels in L363 cells (AlphaLISA SureFire Ultra). The note with it: 10 μM MG132, 6 h, average of values obtained, read-out: Assay 2 IC50. The class given is cell-based, human. In a few lines: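 L363 cells were BAFF-stimulated overnight (250 ng/ml) in DMEM/0.5% BSA, then exposed to an 11-point 1:3 compound series (0.3% DMSO) with BAFF and 10 μM MG132 for 6 h at 37 °C. p-IKKα (Ser176/180) was measured by AlphaLISA SureFire Ultra. IC50 was fitted from % inhibition normalized to stimulated and unstimulated controls.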

Setting [3] is: Homo sapiens, L-363, 250 ng/ml BAFF stimulated.
Setting [4] is: Homo sapiens, L-363, 6 h, 250 ng/ml BAFF stimulated.

pIC50: −log10 of the molar value. Where two headings read alike, the source gives them in different places.

recombinant human NF-kappaB-inducing kinase (NIK/MAP3K14), sequence (Q99558 whole entry): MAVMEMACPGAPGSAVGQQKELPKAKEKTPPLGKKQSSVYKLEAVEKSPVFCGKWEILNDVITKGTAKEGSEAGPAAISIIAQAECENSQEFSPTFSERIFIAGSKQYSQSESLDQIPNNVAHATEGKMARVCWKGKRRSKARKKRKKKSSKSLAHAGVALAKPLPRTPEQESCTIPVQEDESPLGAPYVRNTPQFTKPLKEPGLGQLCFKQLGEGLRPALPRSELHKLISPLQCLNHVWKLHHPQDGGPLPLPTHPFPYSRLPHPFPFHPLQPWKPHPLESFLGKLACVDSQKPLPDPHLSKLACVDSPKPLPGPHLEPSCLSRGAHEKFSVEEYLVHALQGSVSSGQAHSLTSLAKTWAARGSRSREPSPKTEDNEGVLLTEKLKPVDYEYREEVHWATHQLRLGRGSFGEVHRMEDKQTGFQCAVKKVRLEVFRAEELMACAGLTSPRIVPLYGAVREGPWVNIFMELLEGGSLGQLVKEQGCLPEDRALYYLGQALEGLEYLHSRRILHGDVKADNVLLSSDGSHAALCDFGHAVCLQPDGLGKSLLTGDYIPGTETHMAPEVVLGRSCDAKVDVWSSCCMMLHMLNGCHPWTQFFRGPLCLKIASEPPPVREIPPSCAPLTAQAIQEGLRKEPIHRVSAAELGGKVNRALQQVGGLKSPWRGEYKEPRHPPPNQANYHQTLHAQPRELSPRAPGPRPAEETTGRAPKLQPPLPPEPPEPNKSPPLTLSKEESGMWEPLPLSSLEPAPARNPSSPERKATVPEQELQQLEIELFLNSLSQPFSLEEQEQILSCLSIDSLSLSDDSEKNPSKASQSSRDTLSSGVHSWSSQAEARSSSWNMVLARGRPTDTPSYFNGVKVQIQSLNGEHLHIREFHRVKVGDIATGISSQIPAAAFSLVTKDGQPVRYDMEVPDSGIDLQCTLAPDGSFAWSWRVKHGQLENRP

For the compound `CN1CCC[C@@](O)(c2cccc(-c3csc(-c4c[nH]c5nccnc45)n3)c2)C1=O` [Example 54, (R)-3-(3-(2-(5H-Pyrrolo[2,3-b]pyrazin-7-yl)thiazol-4-yl)phenyl)-3-hydroxy-1-methylpiperidin-2-one], the results for the pIC50 in assay [1] and in assay [2] (setting [3]) were not below 7.00 and 6.30 to 7.00, respectively.
The corresponding values for `CN1CCC[C@](O)(c2cccc(-c3csc(-c4c[nH]c5nccnc45)n3)c2)C1=O` [Example 55, (S)-3-(3-(2-(5H-Pyrrolo[2,3-b]pyrazin-7-yl)thiazol-4-yl)phenyl)-3-hydroxy-1-methylpiperidin-2-one] are less than 6.30 and less than 6.30.
For `CN1CC[C@@](O)(c2cccc(-c3nc(-c4c(F)[nH]c5ncccc45)cs3)c2)C1=O` [Example 56, (R)-3-(3-(4-(2-Fluoro-1H-pyrrolo[2,3-b]pyridin-3-yl)thiazol-2-yl)phenyl)-3-hydroxy-1-methylpyrrolidin-2-one], the pIC50 in assay [1] was 6.30 to 7.00; in assay [2] (setting [3]) it was less than 6.30.
Take `CN1CC[C@@](O)(c2cccc(-c3csc(-c4c(F)[nH]c5ncccc45)n3)c2)C1=O` [Example 57, (R)-3-(3-(2-(2-Fluoro-1H-pyrrolo[2,3-b]pyridin-3-yl)thiazol-4-yl)phenyl)-3-hydroxy-1-methylpyrrolidin-2-one]: the pIC50 is 6.30 to 7.00 in assay [1] and less than 6.30 in assay [2] (setting [3]).
On to `O[C@]1(c2cccc(-c3nc(-c4c[nH]c5ncccc45)cs3)c2)CCc2scnc21` [Example 58, (S)-4-(3-(4-(1H-Pyrrolo[2,3-b]pyridin-3-yl)thiazol-2-yl)phenyl)-5,6-dihydro-4H-cyclopenta[d]thiazol-4-ol], for which the pIC50 in assay [1] was 6.30 to 7.00; in assay [2] (setting [4]) it was less than 6.30.
For the compound `O[C@@]1(c2cccc(-c3nc(-c4c[nH]c5ncccc45)cs3)c2)CCc2scnc21` [Example 59, (R)-4-(3-(4-(1H-Pyrrolo[2,3-b]pyridin-3-yl)thiazol-2-yl)phenyl)-5,6-dihydro-4H-cyclopenta[d]thiazol-4-ol], the pIC50 in assay [1] and in assay [2] (setting [4]) was not below 7.00 throughout.
As for `[2H]c1[nH]c2nccnc2c1-c1nc(-c2cccc([C@]3(O)CCn4ccnc43)c2)cs1` [Example 62, (R)-7-(3-(2-(5H-Pyrrolo[2,3-b]pyrazin-7-yl-6-d)thiazol-4-yl)phenyl)-6,7-dihydro-5H-pyrrolo[1,2-a]imidazol-7-ol], the pIC50 in assay [1] and in assay [2] (setting [4]) was not below 7.00 each time.
On to `[2H]c1cnc2[nH]cc(-c3nc(-c4cccc([C@]5(O)CCn6ccnc65)c4)cs3)c2n1` [Example 63, (R)-7-(3-(2-(5H-Pyrrolo[2,3-b]pyrazin-7-yl-2-d)thiazol-4-yl)phenyl)-6,7-dihydro-5H-pyrrolo[1,2-a] imidazol-7-ol], for which the pIC50 in assay [1] and in assay [2] (setting [4]) was not below 7.00 throughout.
Consider `Cc1sc(-c2c[nH]c3nccnc23)nc1-c1cccc([C@]2(O)CCN(C)C2=O)c1` [Example 66, (R)-3-Hydroxy-1-methyl-3-(3-(5-methyl-2-(5H-pyrrolo[2,3-b]pyrazin-7-yl)thiazol-4-yl)phenyl)pyrrolidin-2-one], for which the values for the pIC50 in assay [1] and in assay [2] (setting [3]) were not below 7.00 and less than 6.30, respectively.
On the same counts, the results for `Cc1ccc([C@]2(O)CCN(C)C2=O)cc1-c1csc(-c2c[nH]c3nccnc23)n1` [Example 67, (R)-3-(3-(2-(5H-Pyrrolo[2,3-b]pyrazin-7-yl)thiazol-4-yl)-4-methylphenyl)-3-hydroxy-1-methylpyrrolidin-2-one] are not below 7.00 and less than 6.30.
As for `Cc1cc(-c2csc(-c3c[nH]c4nccnc34)n2)cc([C@]2(O)CCN(C)C2=O)c1` [Example 68, (R)-3-(3-(2-(5H-Pyrrolo[2,3-b]pyrazin-7-yl)thiazol-4-yl)-5-methylphenyl)-3-hydroxy-1-methylpyrrolidin-2-one], the results for the pIC50 in assay [1] and in assay [2] (setting [3]) were not below 7.00 and less than 6.30, respectively.
In the case of `Cc1ccc(-c2csc(-c3c[nH]c4nccnc34)n2)cc1[C@]1(O)CCN(C)C1=O` [Example 69, (R)-3-(5-(2-(5H-Pyrrolo[2,3-b]pyrazin-7-yl)thiazol-4-yl)-2-methylphenyl)-3-hydroxy-1-methylpyrrolidin-2-one], the pIC50 in assay [1] was 6.30 to 7.00; in assay [2] (setting [3]) it was less than 6.30.
The corresponding values for `Cc1ccc(-c2csc(-c3c[nH]c4nccnc34)n2)cc1[C@@]1(O)CCN(C)C1=O` [Example 70, (S)-3-(5-(2-(5H-Pyrrolo[2,3-b]pyrazin-7-yl)thiazol-4-yl)-2-methylphenyl)-3-hydroxy-1-methylpyrrolidin-2-one] are less than 6.30 and less than 6.30.
On the same counts, the results for `Cc1[nH]c2ncccc2c1-c1nc(-c2cccc([C@]3(O)CCN(C)C3=O)c2)cs1` [Example 71, (R)-3-Hydroxy-1-methyl-3-(3-(2-(2-methyl-1H-pyrrolo[2,3-b]pyridin-3-yl)thiazol-4-yl)phenyl)pyrrolidin-2-one] are 6.30 to 7.00 and less than 6.30.
The corresponding values for `CN1CC[C@@](O)(c2cccc(-c3csc(-c4c[nH]c5ncc(C#N)cc45)n3)c2)C1=O` [Example 72, (R)-3-(4-(3-(3-Hydroxy-1-methyl-2-oxopyrrolidin-3-yl)phenyl)thiazol-2-yl)-1H-pyrrolo[2,3-b]pyridine-5-carbonitrile] are not below 7.00 and less than 6.30.
`Cc1ccc2c(-c3nc(-c4cccc([C@]5(O)CCN(C)C5=O)c4)cs3)c[nH]c2n1` [Example 73, (R)-3-Hydroxy-1-methyl-3-(3-(2-(6-methyl-1H-pyrrolo[2,3-b]pyridin-3-yl)thiazol-4-yl)phenyl)pyrrolidin-2-one]: the results for the pIC50 in assay [1] and in assay [2] (setting [3]) were not below 7.00 and less than 6.30, respectively.
The corresponding values for `Cc1cnc2[nH]c(C)c(-c3nc(-c4cccc([C@]5(O)CCN(C)C5=O)c4)cs3)c2c1` [Example 74, (R)-3-(3-(2-(2,5-Dimethyl-1H-pyrrolo[2,3-b]pyridin-3-yl)thiazol-4-yl)phenyl)-3-hydroxy-1-methylpyrrolidin-2-one] are less than 6.30 and less than 6.30.
`O[C@@]1(c2cccc(-c3csc(-c4n[nH]c5ncccc45)n3)c2)CCn2ccnc21` [Example 75, (R)-7-(3-(2-(1H-Pyrazolo[3,4-b]pyridin-3-yl)thiazol-4-yl)phenyl)-6,7-dihydro-5H-pyrrolo[1,2-a]imidazol-7-ol]: the pIC50 is 6.30 to 7.00 in assay [1] and less than 6.30 in assay [2] (setting [4]).
Regarding `O[C@@]1(c2cccc(-c3csc(-c4n[nH]c5nccnc45)n3)c2)CCn2ccnc21` [Example 76, (R)-7-(3-(2-(1H-Pyrazolo[3,4-b]pyrazin-3-yl)thiazol-4-yl)phenyl)-6,7-dihydro-5H-pyrrolo[1,2-a]imidazol-7-ol], the pIC50 in assay [1] was 6.30 to 7.00; in assay [2] (setting [4]) it was less than 6.30.
On to `Cc1cnc2[nH]cc(-c3nc(-c4cccc([C@]5(O)CCn6ccnc65)c4)cs3)c2n1` [Example 81, (R)-7-(3-(2-(2-Methyl-5H-pyrrolo[2,3-b]pyrazin-7-yl)thiazol-4-yl)phenyl)-6,7-dihydro-5H-pyrrolo[1,2-a]imidazol-7-ol], for which the negative logarithm of the IC50 (pIC50) in assay [1] and in assay [2] (setting [4]) was not below 7.00 in each case.
Regarding `Cc1cnc2[nH]cc(-c3nc(-c4cccc([C@@]5(O)CCn6ccnc65)c4)cs3)c2n1` [Example 82, (S)-7-(3-(2-(2-Methyl-5H-pyrrolo[2,3-b]pyrazin-7-yl)thiazol-4-yl)phenyl)-6,7-dihydro-5H-pyrrolo[1,2-a]imidazol-7-ol], the values for the pIC50 in assay [1] and in assay [2] (setting [4]) were 6.30 to 7.00 and less than 6.30, respectively.
The corresponding values for `Cc1cnc2c(-c3nc(-c4cccc([C@]5(O)CCn6ccnc65)c4)cs3)c[nH]c2n1` [Example 83, (R)-7-(3-(2-(3-Methyl-5H-pyrrolo[2,3-b]pyrazin-7-yl)thiazol-4-yl)phenyl)-6,7-dihydro-5H-pyrrolo[1,2-a]imidazol-7-ol] are not below 7.00 and 6.30 to 7.00.
The corresponding values for `O[C@]1(c2cccc(-c3nc(-c4c[nH]c5ncccc45)cs3)c2)CCn2ccnc21` [Example 84, (S)-7-(3-(4-(1H-Pyrrolo[2,3-b]pyridin-3-yl)thiazol-2-yl)phenyl)-6,7-dihydro-5H-pyrrolo[1,2-a]imidazol-7-ol] are 6.30 to 7.00 and less than 6.30.
For `O[C@@]1(c2cccc(-c3csc(-c4c[nH]c5ncccc45)n3)c2)COc2cccnc21` [Example 85, (R)-3-(3-(2-(1H-Pyrrolo[2,3-b]pyridin-3-yl)thiazol-4-yl)phenyl)-2,3-dihydrofuro[3,2-b]pyridin-3-ol], the pIC50 in assay [1] and in assay [2] (250 ng/ml BAFF stimulated) was less than 6.30 throughout.
For the compound `O[C@@]1(c2cccc(-c3csc(-c4c[nH]c5nccnc45)n3)c2)COc2cccnc21` [Example 86, (R)-3-(3-(2-(5H-Pyrrolo[2,3-b]pyrazin-7-yl)thiazol-4-yl)phenyl)-2,3-dihydrofuro[3,2-b]pyridin-3-ol], the pIC50 in assay [1] and in assay [2] (250 ng/ml BAFF stimulated) was less than 6.30 each time.
For `Cc1ccnc2[nH]cc(-c3nc(-c4cccc([C@]5(O)CCn6ccnc65)c4)cs3)c12` [Example 87, (R)-7-(3-(2-(4-Methyl-1H-pyrrolo[2,3-b]pyridin-3-yl)thiazol-4-yl)phenyl)-6,7-dihydro-5H-pyrrolo[1,2-a]imidazol-7-ol], the pIC50 in assay [1] was not below 7.00; in assay [2] (setting [4]), less than 6.30.

As usually defined, the pIC50 is the IC50 on a negative log10 scale, so that one unit is a factor of ten.
